What follows are compounds tested on PDE4 from human U-937 cells (assay: PDE4 Inhibition Assay). Conditions: 1 μM cAMP, [3H]-cAMP, read-out: Potency Class (Inhibitory Concentration) in the PDE4 assay.
Assay type: biochemical
Experimental: PDE4 from human U-937 cells was used (see T. J. Torphy, et al., J. Pharmacol. Exp. Ther., 1992, 263, 1195-1205). Test compound at various concentration and/or vehicle was preincubated with 2 μg/ml enzyme in Tris-HCl buffer pH 7.5 for 15 minutes at 25° C. The reaction was initiated by addition of 1 1 μM cAMP and 0.01 1 μM [^3H]-cAMP for another 20 minute incubation period and terminated at 100° C. The resulting [^3H]-AMP was converted to [^3H]-adenosine by addition of snake venom nucleotidase and separated by AG1-X2 resin. An aliquot was removed and counted to determine the amount of [^3H]-adenosine formed. Results were converted to percent inhibition and IC so determined using XLfit from IDBS (ID Business Solutions Ltd., 2 Occam Court, Surrey Research Park, Guildford, Surrey, GU2 7QB UK).
Representative compounds of the present invention were tested and found to have significant PDE4 inhibition in this assay.

IC50, < 0.2 µM:
Cc1n[nH]c(CC(=O)N2CCN(c3ccc(OC(F)F)c(OC(F)F)c3)C[C@@H]2Cc2ccccc2)n1 [Compound 332, (S)-1-(2-benzyl-4-(3,4-bis(difluoromethoxy)phenyl)piperazin-1-yl)-2-(3-methyl-1H-1,2,4-triazol-5-yl)ethanone]
COc1ccc(N2CCN(C(=O)Cc3n[nH]c(C)n3)[C@@H](Cc3ccccc3)C2)cc1OC(F)F [Compound 346, (S)-1-(2-benzyl-4-(3-(difluoromethoxy)-4-methoxyphenyl)piperazin-1-yl)-2-(5-methyl-1H-1,2,4-triazol-3-yl)ethanone]
CCc1nn(C2CCC2)c2cc(N3CCN(C(=O)Cc4n[nH]c(N)n4)[C@@H](Cc4ccccc4)C3)ccc12 [Compound 355, (S)-2-(5-amino-1H-1,2,4-triazol-3-yl)-1-(2-benzyl-4-(1-cyclobutyl-3-ethyl-1H-indazol-6-yl)piperazin-1-yl)ethanone]
Cc1nc(CC(=O)N2CCN(c3ccc(OC(F)F)c(OC4CCCC4)c3)C[C@@H]2CC(C)C)n[nH]1 [Compound 374, (S)-1-(4-(3-(cyclopentyloxy)-4-(difluoromethoxy)phenyl)-2-isobutylpiperazin-1-yl)-2-(5-methyl-1H-1,2,4-triazol-3-yl)ethanone]
COc1ccc(N2CCN(C(=O)Cc3ncccn3)[C@@H](Cc3ccccc3)C2)cc1OC1CCCC1 [Compound 388, (S)-1-(2-benzyl-4-(3-(cyclopentyloxy)-4-methoxyphenyl)piperazin-1-yl)-2-(pyrimidin-2-yl)ethanone]
COc1ccc(N2CCN(C(=O)[C@@H]3CNC(=O)N3)[C@@H](Cc3ccccc3)C2)cc1OC1CCCC1 [Compound 292, (S)-4-((S)-2-benzyl-4-(3-(cyclopentyloxy)-4-methoxyphenyl)piperazine-1-carbonyl)imidazolidin-2-one]
CCOc1ccc(N2CCN(C(=O)Cc3n[nH]c(C)n3)[C@@H](Cn3cccn3)C2)cc1OC1CCCC1 [Compound 257]
COc1ccc(N2CCN(C(=O)Cc3cc[nH]c3)[C@@H](Cc3ccccc3)C2)cc1OC(C)C [Compound 328, (S)-1-(2-benzyl-4-(3-isopropoxy-4-methoxyphenyl)piperazin-1-yl)-2-(1H-pyrrol-3-yl)ethanone]

IC50, > 1 µM:
COc1ccc(N2CCN(C(=O)Cc3ccncc3)[C@@H](Cc3ccccc3)C2)cc1OC1CCCC1 [Compound 386, (S)-1-(2-benzyl-4-(3-(cyclopentyloxy)-4-methoxyphenyl)piperazin-1-yl)-2-(pyridin-4-yl)ethanone]
COc1ccc(N2CCN(C(=O)c3ccc(CO)cc3)[C@@H](Cc3ccccc3)C2)cc1OC1CCCC1 [Compound 360, (S)-(2-benzyl-4-(3-(cyclopentyloxy)-4-methoxyphenyl)piperazin-1-yl)(4-(hydroxymethyl)phenyl)methanone]
CCOc1ccc(N2CCN(C(C)=O)[C@@H](Cn3cccn3)C2)cc1OC1CCCC1 [Compound 254]
COc1ccc(N2CCN(C(=O)Cc3c[nH]cn3)[C@@H](Cc3ccccc3)C2)cc1OC(F)F [Compound 347, (S)-1-(2-benzyl-4-(3-(difluoromethoxy)-4-methoxyphenyl)piperazin-1-yl)-2-(1H-imidazol-4-yl)ethanone]
COc1ccc(N2CCN(C(=O)CCN)[C@@H](Cc3ccccc3)C2)cc1OC1CCC1 [Compound 274, (S)-3-amino-1-(2-benzyl-4-(3-cyclobutoxy-4-methoxyphenyl)piperazin-1-yl)propan-1-one]
COc1ccc(N2CCN(C(=O)Cc3sc(C)nc3C)[C@@H](Cc3ccccc3)C2)cc1OC1CCCC1 [Compound 298, (S)-1-(2-benzyl-4-(3-(cyclopentyloxy)-4-methoxyphenyl)piperazin-1-yl)-2-(2,4-dimethylthiazol-5-yl)ethanone]
COc1ccc(N2CCN(CCc3cnc[nH]3)[C@@H](Cc3ccccc3)C2)cc1OC1CCCC1 [Compound 242, (S)-1-(2-(1H-imidazol-5-yl)ethyl)-2-benzyl-4-(3-(cyclopentyloxy)-4-methoxyphenyl)piperazine]
CCOC(=O)CC(=O)N1CCN(c2ccc(OC)c(OC3CCCC3)c2)C[C@@H]1CC(C)C [Compound 368, (S)-ethyl 3-(4-(3-(cyclopentyloxy)-4-methoxyphenyl)-2-isobutylpiperazin-1-yl)-3-oxopropanoate]
CNCCC(=O)N1CCN(c2ccc(OC)c(OC3CCC3)c2)C[C@@H]1Cc1ccccc1 [Compound 348, (S)-1-(2-benzyl-4-(3-cyclobutoxy-4-methoxyphenyl)piperazin-1-yl)-3-(methylamino)propan-1-one]
COc1ccc(N2CCN(C(=O)Cc3n[nH]c([N+](=O)[O-])n3)[C@@H](Cc3ccccc3)C2)cc1OC(C)C [Compound 336, (S)-1-(2-benzyl-4-(3-isopropoxy-4-methoxyphenyl)piperazin-1-yl)-2-(5-nitro-1H-1,2,4-triazol-3-yl)ethanone]
COc1ccc(N2CCN(C(=O)[C@H]3CCC(=O)O3)[C@@H](Cc3ccccc3)C2)cc1OC1CCCC1 [Compound 296, (R)-5-((S)-2-benzyl-4-(3-(cyclopentyloxy)-4-methoxyphenyl)piperazine-1-carbonyl)dihydrofuran-2(3H)-one]

IC50, 0.2 to 1 µM:
CCC(=O)N1CCN(c2ccc(OC)c(OC3CCCC3)c2)C[C@@H]1Cc1ccccc1 [Compound 244, (S)-1-(2-benzyl-4-(3-(cyclopentyloxy)-4-methoxyphenyl)piperazin-1-yl)propan-1-one]
COc1ccc(N2CCN(C(=O)Cc3c[nH]cn3)[C@@H](CC(C)C)C2)cc1OC(C)C [Compound 378, (S)-2-(1H-imidazol-4-yl)-1-(2-isobutyl-4-(3-isopropoxy-4-methoxyphenyl)piperazin-1-yl)ethanone]
COc1ccc(N2CCN(C(=O)Cc3n[nH]c(=O)[nH]3)[C@@H](Cc3ccccc3)C2)cc1OC1CCCC1 [Compound 293, (S)-3-(2-(2-benzyl-4-(3-(cyclopentyloxy)-4-methoxyphenyl)piperazin-1-yl)-2-oxoethyl)-1H-1,2,4-triazol-5(4H)-one]
COc1ccc(N2CCN(C(=O)C3CNC(=O)C3)[C@@H](Cc3ccccc3)C2)cc1OC1CCCC1 (stereo partly drawn) [Compound 299, 4-((S)-2-benzyl-4-(3-(cyclopentyloxy)-4-methoxyphenyl)piperazine-1-carbonyl)pyrrolidin-2-one]
COc1ccc(N2CCN(C(=O)C3(O)CCC3)[C@@H](Cc3ccccc3)C2)cc1OC1CCCC1 [Compound 297, (S)-(2-benzyl-4-(3-(cyclopentyloxy)-4-methoxyphenyl)piperazin-1-yl)(1-hydroxycyclobutyl)methanone]
COc1ccc(N2CCN(C(=O)C(=O)c3ccco3)[C@@H](Cc3ccccc3)C2)cc1OC1CCCC1 [Compound 302, (S)-1-(2-benzyl-4-(3-(cyclopentyloxy)-4-methoxyphenyl)piperazin-1-yl)-2-(furan-2-yl)ethane-1,2-dione]
COc1ccc(N2CCN(CCC(N)=O)[C@@H](Cc3ccccc3)C2)cc1OC(C)C [Compound 272, (S)-3-(2-benzyl-4-(3-isopropoxy-4-methoxyphenyl)piperazin-1-yl)propanamide]
